Tests used:
human Gal-3 (hGal-3) = human Gal-3 (hGal-3) (Homo sapiens (Human), UniProt P17931); test: Competitive binding assay: biotinylated hGal-3 binding to microplate-adsorbed asialofetuin (ASF); conditions: Activity on hGal-3; binding of biotinylated hGal-3 to ASF-coated plates; mean values
Protocol: (§1) Evaluation of Compound Inhibitory Activity (IC50)
The inhibitory activity of compounds is determined in competitive binding assays. […] Alternatively, and preferably, a human Gal-1 version in which all six cysteines are substituted by serines may be used.
Briefly, compounds are serially diluted in DMSO (working dilutions).
(§2) Plates are incubated for 3 hours at 4° C. then washed with cold assay buffer (3×50 uL), incubated for 1 hour with 25 μL/well of a streptavidin-peroxidases solution (diluted in assay buffer to 80 ng/mL) at 4° C., followed by further washing steps with assay buffer (3×50 uL). Finally, 25 μL/well of ABTS substrate is added.
(§3) The calculated IC50 values may fluctuate depending on the daily assay performance. Fluctuations of this kind are known to those skilled in the art. IC50 values from several measurements are given as mean values.

human Gal-1 (hGal-1) = test: Competitive binding assay: biotinylated hGal-1 binding to microplate-adsorbed asialofetuin (ASF); conditions: Activity on hGal-1; binding of biotinylated hGal-1 to ASF-coated plates; mean values
human Gal-1 (hGal-1), sequence (P09382 2-135 limits assumed): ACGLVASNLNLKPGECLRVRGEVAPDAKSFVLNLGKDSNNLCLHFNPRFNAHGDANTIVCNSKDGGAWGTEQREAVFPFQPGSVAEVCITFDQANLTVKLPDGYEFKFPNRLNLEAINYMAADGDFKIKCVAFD
Protocol: as §1
The inhibitory activity of compounds is determined in competitive binding assays. This spectrophotometric assay measures the binding of biotinylated human Gal-3 (hGal-3) or human Gal-1 (hGAl-1), respectively, to a microplate-adsorbed glycoprotein, asialofetuin (ASF) (Proc Natl Acad Sci USA. 2013 Mar. 26; 110(13):5052-7.). Alternatively, and preferably, a human Gal-1 version in which all six cysteines are substituted by serines may be used.
Briefly, compounds are serially diluted in DMSO (working dilutions). ASF-coated 384 well pates are supplemented with 22.8 μL/well of biotinylated hGal-3 or hGal-1 in assay buffer (i.e. 300-1000 ng/mL biotinylated hGal-3 or hGal-1) to which 1.2 μL of compound working dilutions are added and mixed.
as §2, with “added. OD (410 nm) is recorded after 30 to 45 min and IC50 values are calculated.” for “added.”
as §3

human Gal-3 (hGal-3), sequence (P17931 whole entry): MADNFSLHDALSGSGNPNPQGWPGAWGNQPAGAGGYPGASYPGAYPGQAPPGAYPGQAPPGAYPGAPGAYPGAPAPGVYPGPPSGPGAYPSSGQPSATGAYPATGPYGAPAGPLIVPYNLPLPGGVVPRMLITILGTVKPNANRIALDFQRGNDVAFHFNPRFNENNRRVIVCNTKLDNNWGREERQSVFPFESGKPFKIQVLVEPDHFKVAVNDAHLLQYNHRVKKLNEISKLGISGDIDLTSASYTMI

| SMILES | IC50 (human Gal-3 (hGal-3)) [nM] | IC50 (human Gal-1 (hGal-1)) [nM] |
| --- | --- | --- |
| CC(=O)O[C@@H]1[C@@H](n2cc(-c3cc(F)c(Cl)c(F)c3)nn2)[C@@H](O)[C@@H](CO)O[C@H]1C(=O)N(Cc1ccnn1C)[C@H]1CCCC[C@@H]1O [Example 50, (2R,3R,4S,5R,6R)-4-(4-(4-chloro-3,5-difluorophenyl)-1H-1,2,3-triazol-1-yl)-5-hydroxy-2-(((1S,2S)-2-hydroxycyclohexyl)((1-methyl-1H-pyrazol-5-yl)methyl)carbamoyl)-6-(hydroxymethyl)tetrahydro-2H-pyran-3-yl acetate] | 53 | 7580 |
| CO[C@@H]1[C@@H](n2cc(-c3cc(F)c(NCCCO)c(F)c3)nn2)[C@@H](O)[C@@H](CO)O[C@H]1C(=O)N(c1cc(Cl)cc(Cl)c1)[C@H]1CCCC[C@@H]1O [Example 204, (2R,3R,4S,5R,6R)—N-(3,5-dichlorophenyl)-4-(4-(3,5-difluoro-4-((3-hydroxypropyl)amino)phenyl)-1H-1,2,3-triazol-1-yl)-5-hydroxy-N-((1S,2S)-2-hydroxycyclohexyl)-6-(hydroxymethyl)-3-methoxytetrahydro-2H-pyran-2-carboxamide] | 21 | 273 |
| CO[C@@H]1[C@@H](n2cc(-c3ccc(Br)c(F)c3)nn2)[C@@H](O)[C@@H](CO)O[C@H]1C(=O)N(c1ccc(F)c(F)c1)[C@H]1CCCC[C@@H]1O [Example 164, (2R,3R,4S,5R,6R)-4-(4-(4-bromo-3-fluorophenyl)-1H-1,2,3-triazol-1-yl)-N-(3,4-difluorophenyl)-5-hydroxy-N-((1S,2S)-2-hydroxycyclohexyl)-6-(hydroxymethyl)-3-methoxytetrahydro-2H-pyran-2-carboxamide] | 58 | 1940 |
| CO[C@@H]1[C@@H](n2cc(-c3cc(F)cc(Br)c3)nn2)[C@@H](O)[C@@H](CO)O[C@H]1C(=O)N(c1cc(F)cc(Cl)c1)[C@H]1CCCC[C@@H]1O [Example 147, (2R,3R,4S,5R,6R)-4-(4-(3-bromo-5-fluorophenyl)-1H-1,2,3-triazol-1-yl)-N-(3-chloro-5-fluorophenyl)-5-hydroxy-N-((1S,2S)-2-hydroxycyclohexyl)-6-(hydroxymethyl)-3-methoxytetrahydro-2H-pyran-2-carboxamide] | 71 | 530 |
| CO[C@@H]1[C@@H](n2cc(-c3cc(F)cc(Cl)c3)nn2)[C@@H](O)[C@@H](CO)O[C@H]1C(=O)N(c1cc(Br)cc(C#N)c1)[C@H]1CCCC[C@@H]1O [Example 137, (2R,3R,4S,5R,6R)-N-(3-bromo-5-cyanophenyl)-4-(4-(3-chloro-5-fluorophenyl)-1H-1,2,3-triazol-1-yl)-5-hydroxy-N-((1S,2S)-2-hydroxycyclohexyl)-6-(hydroxymethyl)-3-methoxytetrahydro-2H-pyran-2-carboxamide] | 24 | 318 |
| CO[C@@H]1[C@@H](n2cc(-c3cc(F)c(F)c(F)c3)nn2)[C@@H](O)[C@@H](CO)O[C@H]1C(=O)N(Cc1ccnn1CC1CC1)[C@H]1CCCC[C@@H]1O [Example 46, (2R,3R,4S,5R,6R)-N-((1-(cyclopropylmethyl)-1H-pyrazol-5-yl)methyl)-5-hydroxy-N-((1S,2S)-2-hydroxycyclohexyl)-6-(hydroxymethyl)-3-methoxy-4-(4-(3,4,5-trifluorophenyl)-1H-1,2,3-triazol-1-yl)tetrahydro-2H-pyran-2-carboxamide] | 160 | 497 |
| CO[C@@H]1[C@@H](n2cc(-c3cc(F)c(F)c(F)c3)nn2)[C@@H](O)[C@@H](CO)O[C@H]1C(=O)N(c1cc(Cl)cc(Cl)c1)[C@H]1CCCC[C@@H]1O [Example 60] | 16 | 665 |

Further compounds by falling IC50 (human Gal-3 (hGal-3)), results first:

| IC50 (human Gal-3 (hGal-3)) [nM] | IC50 (human Gal-1 (hGal-1)) [nM] | SMILES |
| --- | --- | --- |
| 464 | 12400 | Cn1ccnc1CN(C(=O)[C@@H]1O[C@H](CO)[C@H](O)[C@H](n2cc(-c3cc(F)c(F)c(F)c3)nn2)[C@H]1O)[C@H]1CCCC[C@@H]1O [Example 41, (2R,3R,4S,5R,6R)-3,5-dihydroxy-N-((1S,2S)-2-hydroxycyclohexyl)-6-(hydroxymethyl)-N-((1-methyl-1H-imidazol-2-yl)methyl)-4-(4-(3,4,5-trifluorophenyl)-1H-1,2,3-triazol-1-yl)tetrahydro-2H-pyran-2-carboxamide] |
| 174 | 18200 | O=C([C@@H]1O[C@H](CO)[C@H](O)[C@H](n2cc(-c3cc(F)c(F)c(F)c3)nn2)[C@H]1O)N(Cc1ccc(Cl)cc1)[C@H]1CCCC[C@@H]1O [Example 5, (2R,3R,4S,5R,6R)-N-(4-chlorobenzyl)-3,5-dihydroxy-N-((1S,2S)-2-hydroxycyclohexyl)-6-(hydroxymethyl)-4-(4-(3,4,5-trifluorophenyl)-1H-1,2,3-triazol-1-yl)tetrahydro-2H-pyran-2-carboxamide] |
| 154 | 6500 | O=C([C@@H]1O[C@H](CO)[C@H](O)[C@H](n2cc(-c3cc(F)c(F)c(F)c3)nn2)[C@H]1O)N(Cc1ccccc1)[C@H]1CCCC[C@@H]1O [Example 1, (2R,3R,4S,5R,6R)-N-benzyl-3,5-dihydroxy-N-((1S,2S)-2-hydroxycyclohexyl)-6-(hydroxymethyl)-4-(4-(3,4,5-trifluorophenyl)-1H-1,2,3-triazol-1-yl)tetrahydro-2H-pyran-2-carboxamide] |
| 143 | 605 | CO[C@@H]1[C@@H](n2cc(-c3nc(Cl)cs3)nn2)[C@@H](O)[C@@H](CO)O[C@H]1C(=O)N(c1cccc(F)c1F)[C@H]1CCCC[C@@H]1O [Example 193, (2R,3R,4S,5R,6R)-4-(4-(4-chlorothiazol-2-yl)-1H-1,2,3-triazol-1-yl)-N-(2,3-difluorophenyl)-5-hydroxy-N-((1S,2S)-2-hydroxycyclohexyl)-6-(hydroxymethyl)-3-methoxytetrahydro-2H-pyran-2-carboxamide] |
| 81 | 343 | CO[C@@H]1[C@@H](n2cc(-c3cc(F)cc(Br)c3)nn2)[C@@H](O)[C@@H](CO)O[C@H]1C(=O)N(c1cccc(C#N)c1)[C@H]1CCCC[C@@H]1O [Example 148, (2R,3R,4S,5R,6R)-4-(4-(3-bromo-5-fluorophenyl)-1H-1,2,3-triazol-1-yl)-N-(3-cyanophenyl)-5-hydroxy-N-((1S,2S)-2-hydroxycyclohexyl)-6-(hydroxymethyl)-3-methoxytetrahydro-2H-pyran-2-carboxamide] |
| 62 | 2110 | COc1cccc(N(C(=O)[C@@H]2O[C@H](CO)[C@H](O)[C@H](n3cc(-c4cc(F)cc(F)c4)nn3)[C@H]2OC)[C@H]2CCCC[C@@H]2O)c1 [Example 79] |
| 49 | 2010 | CO[C@@H]1[C@@H](n2cc(-c3cc(F)c(F)c(F)c3)nn2)[C@@H](O)[C@@H](CO)O[C@H]1C(=O)N(c1cccc(F)c1)[C@H]1CCCC[C@@H]1O [Example 114, (2R,3R,4S,5R,6R)-N-(3-fluorophenyl)-5-hydroxy-N-((1S,2S)-2-hydroxycyclohexyl)-6-(hydroxymethyl)-3-methoxy-4-(4-(3,4,5-trifluorophenyl)-1H-1,2,3-triazol-1-yl)tetrahydro-2H-pyran-2-carboxamide] |
| 31 | 828 | CC(=O)O[C@@H]1[C@@H](n2cc(-c3cc(F)c(F)c(F)c3)nn2)[C@@H](O)[C@@H](CO)O[C@H]1C(=O)N(Cc1ccccc1C(F)(F)F)[C@H]1CCCC[C@@H]1O [Example 55, (2R,3R,4S,5R,6R)-5-hydroxy-2-(((1S,2S)-2-hydroxycyclohexyl)(2-(trifluoromethyl)benzyl)carbamoyl)-6-(hydroxymethyl)-4-(4-(3,4,5-trifluorophenyl)-1H-1,2,3-triazol-1-yl)tetrahydro-2H-pyran-3-yl acetate] |
| 29 | 618 | CO[C@@H]1[C@@H](n2cc(-c3ccc(C#N)c(F)c3)nn2)[C@@H](O)[C@@H](CO)O[C@H]1C(=O)N(c1cc(Cl)cc(C#N)c1)[C@H]1CCCC[C@@H]1O [Example 181, (2R,3R,4S,5R,6R)-N-(3-chloro-5-cyanophenyl)-4-(4-(4-cyano-3-fluorophenyl)-1H-1,2,3-triazol-1-yl)-5-hydroxy-N-((1S,2S)-2-hydroxycyclohexyl)-6-(hydroxymethyl)-3-methoxytetrahydro-2H-pyran-2-carboxamide] |
| 18 | 218 | CO[C@@H]1[C@@H](n2cc(-c3cc(F)cc(Br)c3)nn2)[C@@H](O)[C@@H](CO)O[C@H]1C(=O)N(c1cc(Cl)cc(C#N)c1)[C@H]1CCCC[C@@H]1O [Example 145, (2R,3R,4S,5R,6R)-4-(4-(3-bromo-5-fluorophenyl)-1H-1,2,3-triazol-1-yl)-N-(3-chloro-5-cyanophenyl)-5-hydroxy-N-((1S,2S)-2-hydroxycyclohexyl)-6-(hydroxymethyl)-3-methoxytetrahydro-2H-pyran-2-carboxamide] |

Source: patent US12291519B2, “2-hydroxycycloalkane-1-carbamoyl” (Idorsia Pharmaceuticals Ltd, priority 2019, dated 2025)
